Converted amounts (≈) assume the structure as drawn.
Tests used:
Test in all cases: Minimum inhibitory concentration, agar dilution test (Denley Multipoint inoculator, Isosensitest medium)
Format in all cases: cell-based
Staphylococcus aur. 1756 = tested on: Staphylococcus aur. 1756
Description: (§1) The MIC values of some of the compounds according to the invention are given in the following table. | Minimum inhibitory concentration mcg/ml^(x) | ^(x) Agar dilution test/Denley Multipoint inoculator Isosensitest | medium

Klebsiella spec. 6179 = tested on: Klebsiella spec. 6179
Description: as §1

Klebsiella pneum. 63 = tested on: Klebsiella pneum. 63
Description: as §1

E. coli Neum. = settings: Escherichia coli
Description: as §1

Klebsiella pneum. 8085 = tested on: Klebsiella pneum. 8085
Description: as §1

E. coli 4418 = settings: Escherichia coli
Description: as §1

[1] = tested on: Streptococcus faecalis 27101; settings: Enterococcus faecalis
Description: as §1

Pseudomonas aerug. W. = tested on: Pseudomonas aerug. W.
Description: as §1

E. coli 455/7 = settings: Escherichia coli
Description: as §1

Staphylococcus aur. 133 = tested on: Staphylococcus aur. 133
Description: as §1

Proteus vulg. 1017 = tested on: Proteus vulg. 1017
Description: as §1

| MIC (Staphylococcus aur. 1756) | MIC (Klebsiella spec. 6179) | MIC (Klebsiella pneum. 63) | MIC (E. coli Neum.) | MIC (Klebsiella pneum. 8085) | MIC (E. coli 4418) | MIC [1] | MIC (Pseudomonas aerug. W.) | MIC (E. coli 455/7) | MIC (Staphylococcus aur. 133) | MIC (Proteus vulg. 1017) | SMILES |
| --- | --- | --- | --- | --- | --- | --- | --- | --- | --- | --- | --- |
| 0.5 µg/mL (≈ 1.2 µM) | 0.5 µg/mL (≈ 1.2 µM) | 0.25 µg/mL (≈ 0.599 µM) | 0.125 µg/mL (≈ 0.299 µM) | 0.125 µg/mL (≈ 0.299 µM) | 0.25 µg/mL (≈ 0.599 µM) | 4 µg/mL (≈ 9.58 µM) | 8 µg/mL (≈ 19.2 µM) | 16 µg/mL (≈ 38.3 µM) | 0.5 µg/mL (≈ 1.2 µM) | 0.5 µg/mL (≈ 1.2 µM) | CN1CCN(c2c(F)cc3c(=O)c(C(=O)O)cn(-c4ccc(F)cc4)c3c2F)CC1 [Example 1, 6,8-Difluoro-1,4-dihydro-4-oxo-1-(4-fluorophenyl)-7-(4-methyl-1-piperazinyl)-quinoline-3-carboxylic acid] |
| 0.5 µg/mL (≈ 1.2 µM) | 0.25 µg/mL (≈ 0.599 µM) | 0.125 µg/mL (≈ 0.299 µM) | ~0.015 µg/mL (≈ 0.0359 µM) | 0.06 µg/mL (≈ 0.144 µM) | 0.125 µg/mL (≈ 0.299 µM) | 4 µg/mL (≈ 9.58 µM) | 4 µg/mL (≈ 9.58 µM) | 8 µg/mL (≈ 19.2 µM) | 0.5 µg/mL (≈ 1.2 µM) | 0.25 µg/mL (≈ 0.599 µM) | CC1CN(c2c(F)cc3c(=O)c(C(=O)O)cn(-c4ccc(F)cc4)c3c2F)CCN1 (centres unmarked) [Example 2, 6,8-Difluoro-1,4-dihydro-4-oxo-1-(4-fluorophenyl)-7-(3-methyl-1-piperazinyl)-quinoline-3-carboxylic acid] |
| 0.25 µg/mL (≈ 0.62 µM) | 0.06 µg/mL (≈ 0.149 µM) | 0.06 µg/mL (≈ 0.149 µM) | ~0.015 µg/mL (≈ 0.0372 µM) | ~0.015 µg/mL (≈ 0.0372 µM) | 0.06 µg/mL (≈ 0.149 µM) | 4 µg/mL (≈ 9.92 µM) | 1 µg/mL (≈ 2.48 µM) | 8 µg/mL (≈ 19.8 µM) | 0.25 µg/mL (≈ 0.62 µM) | 0.03 µg/mL (≈ 0.0744 µM) | O=C(O)c1cn(-c2ccc(F)cc2)c2c(F)c(N3CCNCC3)c(F)cc2c1=O [Example 3, 6,8-Difluoro-1,4-dihydro-4-oxo-1-(4-fluorophenyl)-7-(1-piperazinyl)-quinoline-3-carboxylic acid] |
| 1 µg/mL (≈ 3.13 µM) | 2 µg/mL (≈ 6.26 µM) | 0.25 µg/mL (≈ 0.783 µM) | 0.125 µg/mL (≈ 0.391 µM) | 0.25 µg/mL (≈ 0.783 µM) | 0.125 µg/mL (≈ 0.391 µM) | 1 µg/mL (≈ 3.13 µM) | 2 µg/mL (≈ 6.26 µM) | 8 µg/mL (≈ 25.1 µM) | 1 µg/mL (≈ 3.13 µM) | 0.06 µg/mL (≈ 0.188 µM) | CCn1cc(C(=O)O)c(=O)c2cc(F)c(N3CCNCC3)cc21 [Norfloxacin, reference compound] |

From patent US4981854A, “A-aryl-4-quinolone-3-carboxylic acids” (Bayer Aktiengesellschaft, priority 1985, dated 1991)
